Laboratory results from the NIST ThermoML archive (doi:10.1016/j.jct.2016.10.031).
“And” between values parts separate entries of the source, which are not always exact repeats. Identical values can stand only once.

Assay: molar heat capacity at constant pressure
Conditions: 101.33 kPa, Small (less than 1 g) adiabatic calorimetry

CC(C)(C)c1ccc(Oc2ccc([N+](=O)[O-])cc2)cc1 [1-(tert-butyl)-4-(4-nitrophenoxy)benzene]
Conditions	molar heat capacity at constant pressure
210.18 K, Glass	258.75 J/K/mol
210.65 K, Crystal	255.67 J/K/mol
211.38 K, Glass	260.08 J/K/mol
211.85 K, Crystal	257 J/K/mol
212.58 K, Glass	261.24 J/K/mol
213.05 K, Crystal	258.5 J/K/mol
213.78 K, Glass	262.57 J/K/mol
214.26 K, Crystal	259.91 J/K/mol
214.99 K, Glass	263.98 J/K/mol
215.46 K, Crystal	261.07 J/K/mol
216.19 K, Glass	265.4 J/K/mol
216.66 K, Crystal	262.4 J/K/mol
217.4 K, Glass	266.56 J/K/mol
217.87 K, Crystal	263.65 J/K/mol
218.61 K, Glass	267.89 J/K/mol
219.07 K, Crystal	265.56 J/K/mol
220 K, Crystal	266.48 J/K/mol
220.27 K, Crystal	266.4 J/K/mol
221.02 K, Glass	272.13 J/K/mol
221.47 K, Crystal	268.06 J/K/mol
222.24 K, Glass	272.71 J/K/mol
222.68 K, Crystal	269.47 J/K/mol
223.45 K, Glass	273.71 J/K/mol
223.88 K, Crystal	270.8 J/K/mol
224.67 K, Glass	275.46 J/K/mol
225.09 K, Crystal	272.13 J/K/mol
225.88 K, Glass	277.37 J/K/mol
226.29 K, Crystal	273.38 J/K/mol
227.1 K, Glass	279.45 J/K/mol
227.5 K, Crystal	274.88 J/K/mol
228.32 K, Glass	281.53 J/K/mol
228.7 K, Crystal	276.37 J/K/mol
229.54 K, Glass	283.61 J/K/mol
229.91 K, Crystal	277.7 J/K/mol
230 K, Crystal	277.79 J/K/mol
230.75 K, Glass	286.52 J/K/mol
231.12 K, Crystal	278.7 J/K/mol
231.96 K, Glass	291.09 J/K/mol
232.32 K, Crystal	280.03 J/K/mol
233.16 K, Glass	296.83 J/K/mol
233.53 K, Crystal	281.78 J/K/mol
234.33 K, Metastable liquid	313.12 J/K/mol
234.74 K, Crystal	283.36 J/K/mol
235.47 K, Metastable liquid	327.51 J/K/mol
235.95 K, Crystal	284.69 J/K/mol
236.57 K, Metastable liquid	370.08 J/K/mol
237.15 K, Crystal	286.77 J/K/mol
237.72 K, Metastable liquid	379.14 J/K/mol
238.37 K, Crystal	287.51 J/K/mol
238.92 K, Metastable liquid	380.05 J/K/mol
239.58 K, Crystal	289.09 J/K/mol
240 K, Crystal	289.26 J/K/mol
240.13 K, Metastable liquid	380.22 J/K/mol
240.79 K, Crystal	290.51 J/K/mol
241.35 K, Metastable liquid	381.3 J/K/mol
242 K, Crystal	291.5 J/K/mol
242.56 K, Metastable liquid	382.3 J/K/mol
243.21 K, Crystal	292.84 J/K/mol
243.77 K, Metastable liquid	383.46 J/K/mol
244.43 K, Crystal	294.58 J/K/mol
244.99 K, Metastable liquid	384.21 J/K/mol
245.64 K, Crystal	295.99 J/K/mol
246.85 K, Crystal	297.24 J/K/mol
248.06 K, Crystal	298.57 J/K/mol
249.28 K, Crystal	300.07 J/K/mol
250 K, Crystal	300.9 J/K/mol
250.5 K, Crystal	301.73 J/K/mol
251.71 K, Crystal	302.73 J/K/mol
252.92 K, Crystal	304.39 J/K/mol
254.14 K, Crystal	305.89 J/K/mol
255.35 K, Crystal	307.72 J/K/mol
256.57 K, Crystal	309.05 J/K/mol
257.78 K, Crystal	310.55 J/K/mol
259 K, Crystal	311.96 J/K/mol
260 K, Crystal	312.62 J/K/mol
260.22 K, Crystal	313.46 J/K/mol
261.44 K, Crystal	315.12 J/K/mol
262.65 K, Crystal	316.28 J/K/mol
263.87 K, Crystal	317.61 J/K/mol
265.09 K, Crystal	319.11 J/K/mol
266.31 K, Crystal	320.52 J/K/mol
267.53 K, Crystal	322.93 J/K/mol
268.76 K, Crystal	323.52 J/K/mol
269.98 K, Crystal	324.6 J/K/mol
270 K, Crystal	324.6 J/K/mol
271.2 K, Crystal	326.68 J/K/mol
272.42 K, Crystal	327.92 J/K/mol
273.64 K, Crystal	329.92 J/K/mol
274.86 K, Crystal	331.08 J/K/mol
276.09 K, Crystal	332.58 J/K/mol
277.31 K, Crystal	333.99 J/K/mol
278.53 K, Crystal	335.41 J/K/mol
279.76 K, Crystal	336.82 J/K/mol
280 K, Crystal	336.82 J/K/mol
280.98 K, Crystal	337.98 J/K/mol
282.21 K, Crystal	338.98 J/K/mol
283.43 K, Crystal	341.06 J/K/mol
284.66 K, Crystal	342.56 J/K/mol
285.89 K, Crystal	344.14 J/K/mol
287.11 K, Crystal	345.22 J/K/mol
288.31 K, Crystal	347.05 J/K/mol
289.54 K, Crystal	348.38 J/K/mol
290 K, Crystal	349.21 J/K/mol
290.77 K, Crystal	349.96 J/K/mol
291.99 K, Crystal	351.2 J/K/mol
293.22 K, Crystal	353.2 J/K/mol
294.45 K, Crystal	354.45 J/K/mol
295.68 K, Crystal	355.94 J/K/mol
296.91 K, Crystal	357.69 J/K/mol
298.15 K, Crystal	359.02 J/K/mol and 359.52 J/K/mol
299.38 K, Crystal	360.35 J/K/mol
300 K, Crystal	361.85 J/K/mol
300.82 K, Crystal	363.01 J/K/mol
302.44 K, Crystal	364.84 J/K/mol
304.06 K, Crystal	367.75 J/K/mol
305.69 K, Crystal	370.08 J/K/mol
307.33 K, Crystal	372.49 J/K/mol
308.97 K, Crystal	374.65 J/K/mol
310 K, Crystal	376.4 J/K/mol
310.62 K, Crystal	377.23 J/K/mol
312.28 K, Crystal	379.97 J/K/mol
313.94 K, Crystal	385.62 J/K/mol
315.6 K, Crystal	386.71 J/K/mol
317.26 K, Crystal	392.78 J/K/mol
318.94 K, Crystal	397.18 J/K/mol
320 K, Crystal	390.45 J/K/mol
320.63 K, Crystal	403.09 J/K/mol
322.32 K, Crystal	412.15 J/K/mol
324.01 K, Crystal	420.79 J/K/mol
325.71 K, Crystal	441.66 J/K/mol
327.44 K, Crystal	477.92 J/K/mol
330 K, Crystal	404.5 J/K/mol
334.8 K, Crystal	411.23 J/K/mol
334.8 K, Liquid	446.57 J/K/mol
340 K, Liquid	449.23 J/K/mol
340.68 K, Liquid	450.39 J/K/mol
344.79 K, Liquid	449.98 J/K/mol
346.59 K, Liquid	452.64 J/K/mol
348.4 K, Liquid	452.39 J/K/mol
350 K, Liquid	454.39 J/K/mol
350.22 K, Liquid	454.88 J/K/mol
352.05 K, Liquid	456.21 J/K/mol
353.89 K, Liquid	457.05 J/K/mol
355.75 K, Liquid	456.96 J/K/mol
357.6 K, Liquid	459.21 J/K/mol
359.66 K, Liquid	460.7 J/K/mol
360 K, Liquid	459.54 J/K/mol
361.55 K, Liquid	460.21 J/K/mol
363.45 K, Liquid	461.62 J/K/mol
365.36 K, Liquid	462.28 J/K/mol
367.28 K, Liquid	462.87 J/K/mol
369.21 K, Liquid	463.95 J/K/mol
370 K, Liquid	464.7 J/K/mol
371.16 K, Liquid	464.86 J/K/mol
